Where two headings read alike, the source gives them in different places. Starred links: 1 amine or outer side, 2 acyl side, 3 side chain; linkers in the order of their positions; H or OH if unused. Positions of bridges follow the written chain, without caps; N, C: chain ends. Non-standard residues stand in square brackets, D forms with d. Residues, ends and D or L forms follow the SMILES beside them. Groups on a side chain read outwards from the residue. *: point of attachment. X2 = O=C(O)CN1CCN(CC(=O)O)CCN(CC(=O)NCCOCCOCCOCCOCC(=O)*)CCN(CC(=O)O)CC1; Ala(piperidin-4-yl) = O=C([C@H](CC1CCN([*:3])CC1)N[*:1])[*:2]; DOTA = O=C(O)CN1CCN(CC(=O)O)CCN(CC(=O)*)CCN(CC(=O)O)CC1; Phe(4-COOH) = N[C@@H](Cc1ccc(C(=O)O)cc1)C(=O)O; Trp(5-F) = N[C@@H](Cc1c[nH]c2ccc(F)cc12)C(=O)O; γGlu = O=C(O)[C@H](CCC(=O)[*:2])N[*:1]; 1Nal = N[C@@H](Cc1cccc2ccccc12)C(=O)O; Ala(4-THP) = N[C@@H](CC1CCOCC1)C(=O)O; Val(3-OH) = CC(C)(O)[C@H](N)C(=O)O; 4Pal = N[C@@H](Cc1ccncc1)C(=O)O; Cha = N[C@@H](CC1CCCCC1)C(=O)O; Tle = CC(C)(C)[C@H](N)C(=O)O; hLeu = CC(C)CC[C@H](N)C(=O)O
How the values were obtained:
[1] = system: Calu-6 cell line; test: Cell associated (bound) fraction of [177Lu]Lu-labeled peptide in Calu-6 cells; format: cell-based, Human; conditions: 1 hour, 37° C.
Experimental: (§1) [^177Lu]LuCl3 was received from venders in HCl solution. For every mCi of [^177Lu]LuCl3 added to the reaction vial (1.5 mL Eppendorf vial), ammonium acetate buffer (0.2 M, pH 4.9, 100 μL, containing 1% w/v ascorbic acid and 6% v/v ethanol) and peptide conjugate (1 nmol) was added. The pH of the solution was determined to be approximately 5 by using pH strips. The reaction vial was incubated at 80° C., 700 RPM for 17-20 minutes. A sample from the reaction was analyzed by RP-HPLC using an Agilent Infinity II 1260 HPLC to determine reaction completion and radiochemical purity. HPLC conditions: Waters XBridge BEH C18 Column, 130 Å, 3.5 μm, 4.6 mm×250 mm; mobile phase: Solvent A=water (with 0.1% formic acid), solvent B=acetonitrile (with 0.1% formic acid). Gradients: 25-45% B in 10 minutes, 45-65% B in 12 minutes, 65-90% in 6 minutes at a flow rate of 0.5 mL/minute. Required amounts of the product were formulated in 1% PBSA for cell studies.
(§2) The study was conducted using Calu-6 cell line (Table 8)
(§3) Adherent cell studies: The cells were cultured in appropriate culture media (20 mL) in tissue culture treated T150 flasks at 37° C. and 5% CO2. Adherent cells were detached (60-70% confluent) using 5 mL Versene at 37° C. for 3 minutes. After confirming the viability using countess and count of detached cells using Trypan blue, the cells were centrifuged at 4° C. for 5 minutes (1,000 revolutions per minute). The cell pellet obtained was washed once with PBS and resuspended in 1% PBSA to obtain the desired cell concentration (5 million cells/mL).
Cell associated fraction: Cells were incubated with 300 μL (0.8 μCi) of the incubation buffer (containing radiolabeled peptide [^177Lu]Lu-test peptide) for 1 hour at 37 C (Table 9). Post incubation, the cells were pelleted and washed 2 times using cold PBS+1% BSA. The supernatant and washes were combined and counted together as “unbound fraction” in a gamma counter. The cells were then resuspended in 300 μL of 1% PBS+1% BSA and counted in the gamma counter as cell associated fraction (or bound fraction).
(§4) Calu-6 Cells are Human-Derived, Non-Engineered Lung Cancer Cell that Express B7-H3.

[2] = system: Calu-6 cell line; test: Net internalization of [177Lu]Lu-labeled peptide in Calu-6 cells; format: cell-based, Human; conditions: 1 hour, 37° C., glycine pH 2.5 acid wash
Experimental: as §1, §2, §3
Net internalization: The resuspended cells in 300 μl of 1% PBSA and counted in the gamma counter as “bound fraction” were collected in 1.5 mL Eppendorf tube and pelleted. The pelleted cells were incubated with 300 μl of 50 mM Glycine pH=2.5 for 3 minutes and then pelleted discarding the supernatant. This process was repeated one more time. The pelleted cells were washed with 300 μl of cold 1% PBSA and then resuspended in 300 μl 0.3 M NaOH. This was counted in the gamma counter as “internalized fraction”.
as §4

[3] = target: T1, human 4lg B7-H3 (Homo sapiens, UniProt Q5ZPR3); test: Affinity determination by surface plasmon resonance (SPR) to 4Ig B7-H3; conditions: 4Ig B7-H3
T1 sequence (Q5ZPR3 29-534): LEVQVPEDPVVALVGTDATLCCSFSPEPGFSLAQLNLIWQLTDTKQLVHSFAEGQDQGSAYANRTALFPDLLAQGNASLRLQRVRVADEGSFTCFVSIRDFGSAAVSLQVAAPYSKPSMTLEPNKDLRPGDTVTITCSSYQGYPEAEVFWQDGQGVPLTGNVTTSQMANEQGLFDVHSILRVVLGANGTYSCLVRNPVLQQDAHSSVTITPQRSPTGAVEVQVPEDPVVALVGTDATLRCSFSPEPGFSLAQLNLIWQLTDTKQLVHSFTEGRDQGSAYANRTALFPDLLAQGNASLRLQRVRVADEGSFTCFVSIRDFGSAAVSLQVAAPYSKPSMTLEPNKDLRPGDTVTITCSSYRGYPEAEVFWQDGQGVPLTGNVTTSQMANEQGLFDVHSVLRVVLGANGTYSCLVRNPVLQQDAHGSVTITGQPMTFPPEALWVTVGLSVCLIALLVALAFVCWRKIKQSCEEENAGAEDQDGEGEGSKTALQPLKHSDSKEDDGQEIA

[4] = read-out: SPR KD—25° C., 25° C. flow cell temperature
[5] = SPR KD—25° C., 25° C. flow cell temperature

Structure (SMILES)	% cell associated fraction [1]	% net internalization [2]	Kd [3, 4]	Kd [3, 5]	Kd ([3]; SPR KD—37° C., 37° C. flow cell temperature)	Kd ([3]; read-out: SPR KD—37° C., 37° C. flow cell temperature)
CC(=O)N[C@@H](CCC(C)C)C(=O)N[C@@H](Cc1ccc(O)cc1)C(=O)N[C@H]1CSSC[C@@H](C(=O)N[C@@H](Cc2c[nH]c3ccc(F)cc23)C(=O)N[C@@H](Cc2ccccc2)C(=O)N[C@H](C(=O)N[C@H](CCCCNC(=O)CN2CCN(CC(=O)O)CCN(CC(=O)O)CCN(CC(=O)O)CC2)C(N)=O)C(C)(C)O)NC(=O)[C@H](Cc2ccc(O)cc2)NC(=O)[C@H](C(C)C)NC(=O)[C@H](CC(=O)O)NC(=O)[C@H](CC2CCCCC2)NC(=O)[C@H](CC2CCNCC2)NC(=O)CNC(=O)[C@H](C(C)C)NC1=O [compound 227, Ac-hLeu-Y-C-V-G-PipAla-CHA-D-V-Y-C-5FW-F-hydroxyVal-dLys(DOTA)-CONH2] (Ac-[hLeu]YCVG[Ala(piperidin-4-yl)][Cha]DVYC[Trp(5-F)]F[Val(3-OH)][dK](DOTA)-NH2; disulfide 3-11)	C (%>50)	B (25<%≤50)	< 1 nM			
CC[C@H](C)[C@@H]1NC(=O)[C@@H](NC(=O)[C@H](Cc2ccc(O)cc2)NC(=O)[C@H](CCC(C)C)NC(C)=O)CSSC[C@@H](C(=O)N[C@@H](Cc2c[nH]c3ccc(F)cc23)C(=O)N[C@@H](Cc2ccccc2)C(=O)N[C@H](C(N)=O)C(C)(C)O)NC(=O)[C@H](Cc2ccc(O)cc2)NC(=O)[C@H](C(C)C)NC(=O)[C@H](CC(=O)O)NC(=O)[C@H](Cc2ccncc2)NC(=O)[C@H](CCCCNC(=O)CN2CCN(CC(=O)O)CCN(CC(=O)O)CCN(CC(=O)O)CC2)NC(=O)CNC1=O [compound 230, Ac-hLeu-Y-C-Ile-G-Lys(DOTA)-4PyA-D-V-Y-C-5FW-F-hydroxyVal-CONH2] (Ac-[hLeu]YCIGK(DOTA)[4Pal]DVYC[Trp(5-F)]F[Val(3-OH)]-NH2; disulfide 3-11)	B (25<%≤50)	A (%≤25)		< 1 nM		
CC(=O)N[C@@H](CCC(C)C)C(=O)N[C@@H](Cc1ccc(O)cc1)C(=O)N[C@H]1CSSC[C@@H](C(=O)N[C@@H](Cc2cccc3ccccc23)C(=O)N[C@@H](Cc2ccccc2)C(=O)N2CCC[C@H]2C(N)=O)NC(=O)[C@H](Cc2ccc(O)cc2)NC(=O)[C@H](C(C)C)NC(=O)[C@H](CC(=O)O)NC(=O)[C@H](Cc2ccncc2)NC(=O)[C@H](CCCCNC(=O)CC[C@H](NC(=O)CN2CCN(CC(=O)O)CCN(CC(=O)O)CCN(CC(=O)O)CC2)C(=O)O)NC(=O)CNC(=O)[C@H](C(C)(C)C)NC1=O [compound 252, Ac-hLeu-Y-C-Tbg-G-Lys(gE-DOTA)-4PyA-D-V-Y-C-1Nal-F-Pro-CONH2] (Ac-[hLeu]YC[Tle]GK([γGlu-DOTA])[4Pal]DVYC[1Nal]FP-NH2; disulfide 3-11)	B (25<%≤50)	A (%≤25)		1 to 10 nM		
CC(=O)N[C@@H](CCC(C)C)C(=O)N[C@@H](Cc1ccc(O)cc1)C(=O)N[C@H]1CSSC[C@@H](C(=O)N[C@@H](Cc2cccc3ccccc23)C(=O)N[C@@H](Cc2ccccc2)C(=O)N2CCC[C@H]2C(N)=O)NC(=O)[C@H](Cc2ccc(O)cc2)NC(=O)[C@H](C(C)C)NC(=O)[C@H](CC(=O)O)NC(=O)[C@H](Cc2ccncc2)NC(=O)[C@H](CCCCNC(=O)CC[C@H](NC(=O)CC[C@H](NC(=O)CN2CCN(CC(=O)O)CCN(CC(=O)O)CCN(CC(=O)O)CC2)C(=O)O)C(=O)O)NC(=O)CNC(=O)[C@H](C(C)(C)C)NC1=O [compound 253, Ac-hLeu-Y-C-Tbg-G-Lys(gE-gE-DOTA)-4PyA-D-V-Y-C-1Nal-F-Pro-CONH2] (Ac-[hLeu]YC[Tle]GK([γGlu-γGlu-DOTA])[4Pal]DVYC[1Nal]FP-NH2; disulfide 3-11)	A (%≤25)	A (%≤25)		1 to 10 nM		
CC(=O)N[C@@H](CCC(C)C)C(=O)N[C@@H](Cc1ccc(O)cc1)C(=O)N[C@H]1CSSC[C@@H](C(=O)N[C@@H](Cc2cccc3ccccc23)C(=O)N[C@@H](Cc2ccccc2)C(=O)N2CCC[C@H]2C(N)=O)NC(=O)[C@H](Cc2ccc(O)cc2)NC(=O)[C@H](C(C)C)NC(=O)[C@H](CC(=O)O)NC(=O)[C@H](Cc2ccncc2)NC(=O)[C@H](CCCCNC(=O)COCCOCCOCCOCCNC(=O)CN2CCN(CC(=O)O)CCN(CC(=O)O)CCN(CC(=O)O)CC2)NC(=O)CNC(=O)[C@H](C(C)(C)C)NC1=O [compound 256, Ac-hLeu-Y-C-Tbg-G-Lys(PEG4-DOTA)-4PyA-D-V-Y-C-1Nal-F-Pro-CONH2] (Ac-[hLeu]YC[Tle]GK(X2)[4Pal]DVYC[1Nal]FP-NH2; disulfide 3-11)	A (%≤25)	A (%≤25)		1 to 10 nM		
CC(=O)N[C@@H](CCC(C)C)C(=O)N[C@@H](Cc1ccc(O)cc1)C(=O)N[C@H]1CSSC[C@@H](C(=O)N[C@@H](Cc2cccc3ccccc23)C(=O)N[C@@H](Cc2ccccc2)C(=O)N2CCC[C@H]2C(=O)N[C@H](CCCCNC(=O)COCCOCCOCCOCCNC(=O)CN2CCN(CC(=O)O)CCN(CC(=O)O)CCN(CC(=O)O)CC2)C(N)=O)NC(=O)[C@H](Cc2ccc(O)cc2)NC(=O)[C@H](C(C)C)NC(=O)[C@H](CC(=O)O)NC(=O)[C@H](CC2CCOCC2)NC(=O)[C@H](CCCCN)NC(=O)CNC(=O)[C@H](C(C)(C)C)NC1=O [compound 259, Ac-hLeu-Y-C-Tbg-G-K-ThpA-D-V-Y-C-1Nal-F-Pro-dLys(PEG4-DOTA)-CONH2] (Ac-[hLeu]YC[Tle]GK[Ala(4-THP)]DVYC[1Nal]FP[dK](X2)-NH2; disulfide 3-11)	B (25<%≤50)	A (%≤25)		< 1 nM	1 to 10 nM	
CC(=O)N[C@@H](CCC(C)C)C(=O)N[C@@H](Cc1ccc(O)cc1)C(=O)N[C@H]1CSSC[C@@H](C(=O)N[C@@H](Cc2c[nH]c3ccc(F)cc23)C(=O)N[C@@H](Cc2ccccc2)C(=O)N2CCC[C@H]2C(=O)N[C@H](CCCCNC(=O)COCCOCCOCCOCCNC(=O)CN2CCN(CC(=O)O)CCN(CC(=O)O)CCN(CC(=O)O)CC2)C(N)=O)NC(=O)[C@H](Cc2ccc(O)cc2)NC(=O)[C@H](C(C)C)NC(=O)[C@H](CC(=O)O)NC(=O)[C@H](CC2CCOCC2)NC(=O)[C@H](CCCCN)NC(=O)CNC(=O)[C@H](C(C)C)NC1=O [compound 282, Ac-hLeu-Y-C-V-G-K-ThpA-D-V-Y-C-5FW-F-Pro-dLys(PEG4-DOTA)-CONH2] (Ac-[hLeu]YCVGK[Ala(4-THP)]DVYC[Trp(5-F)]FP[dK](X2)-NH2; disulfide 3-11)	B (25<%≤50)	A (%≤25)		< 1 nM		
CC(=O)N[C@@H](CCC(C)C)C(=O)N[C@@H](Cc1ccc(O)cc1)C(=O)N[C@H]1CSSC[C@@H](C(=O)N[C@@H](Cc2c[nH]c3ccc(F)cc23)C(=O)N[C@@H](Cc2ccccc2)C(=O)N2CCC[C@H]2C(=O)N[C@H](CCCCNC(=O)CN2CCN(CC(=O)O)CCN(CC(=O)O)CCN(CC(=O)O)CC2)C(N)=O)NC(=O)[C@H](Cc2ccc(O)cc2)NC(=O)[C@H](C(C)C)NC(=O)[C@H](CC(=O)O)NC(=O)[C@H](Cc2ccc(C(=O)O)cc2)NC(=O)[C@H](CC2CCNCC2)NC(=O)CNC(=O)[C@H](C(C)C)NC1=O [compound 286, Ac-hLeu-Y-C-V-G-PipAla-4COOHPhe-D-V-Y-C-5FW-F-Pro-dLys(DOTA)-CONH2] (Ac-[hLeu]YCVG[Ala(piperidin-4-yl)][Phe(4-COOH)]DVYC[Trp(5-F)]FP[dK](DOTA)-NH2; disulfide 3-11)	C (%>50)	A (%≤25)	< 1 nM			1 to 10 nM

From US20250296959A1, “B7-H3 TARGETING PEPTIDES AND CONSTRUCTS THEREOF” (Mariana Oncology Inc., priority 2024, published 2025)
